Like-named read-outs stand apart in the source and are kept apart here.

The text below walks through data of paper PMC3038857, “Using Nuclear Receptor Activity to Stratify Hepatocarcinogens” (PLoS ONE, 2011).

In one data set the test system is Mouse Liver. The conditions noted are these: ref ToxRefDB, cited from earlier work.
For data set [1], the target named is T1, AR (androgen receptor) (Homo sapiens, UniProt P10275).
T1 construct: expressed in transfected cells
T1 sequence (P10275 1-920): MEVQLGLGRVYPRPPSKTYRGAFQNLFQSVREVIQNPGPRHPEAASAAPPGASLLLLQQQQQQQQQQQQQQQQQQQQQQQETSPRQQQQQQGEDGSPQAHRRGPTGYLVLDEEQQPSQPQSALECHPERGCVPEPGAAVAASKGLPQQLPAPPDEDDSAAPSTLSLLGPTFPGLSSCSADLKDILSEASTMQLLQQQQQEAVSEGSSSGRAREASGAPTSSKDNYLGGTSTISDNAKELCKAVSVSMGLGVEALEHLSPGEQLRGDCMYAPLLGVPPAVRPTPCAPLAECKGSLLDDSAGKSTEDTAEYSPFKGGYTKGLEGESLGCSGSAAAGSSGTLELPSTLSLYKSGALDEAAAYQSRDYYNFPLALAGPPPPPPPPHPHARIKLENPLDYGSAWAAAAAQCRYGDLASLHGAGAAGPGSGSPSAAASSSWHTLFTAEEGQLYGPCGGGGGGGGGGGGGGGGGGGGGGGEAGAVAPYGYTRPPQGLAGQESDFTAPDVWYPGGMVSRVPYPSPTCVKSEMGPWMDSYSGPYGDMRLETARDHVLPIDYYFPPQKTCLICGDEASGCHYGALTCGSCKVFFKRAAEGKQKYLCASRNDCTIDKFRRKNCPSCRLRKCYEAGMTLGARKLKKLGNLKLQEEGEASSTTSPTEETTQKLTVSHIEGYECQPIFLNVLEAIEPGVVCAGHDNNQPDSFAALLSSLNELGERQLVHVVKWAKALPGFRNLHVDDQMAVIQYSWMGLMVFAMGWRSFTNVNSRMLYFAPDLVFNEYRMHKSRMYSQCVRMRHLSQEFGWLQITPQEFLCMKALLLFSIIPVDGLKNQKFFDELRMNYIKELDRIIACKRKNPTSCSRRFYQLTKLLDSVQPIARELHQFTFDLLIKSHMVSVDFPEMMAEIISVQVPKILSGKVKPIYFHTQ
The data set can be described thus: NCGC_AR_Antagonist: GAL4 BLAM Reporter gene assay: AR. The format is cell-based. The following applies: antagonist mode. The procedure: (§1) These assays measure binding constants and enzyme inhibition values for nuclear receptors. The targets include [drawing 67] , [drawing 68] , [drawing 69] , [drawing 70] , [drawing 71] , [drawing 72] , [drawing 73] , [drawing 74] , [drawing 75] and [drawing 76] . Each of the nuclear receptor targets was measured in agonist mode. Assays were run at the NIH Chemical Genomics Center (Rockville, MD).
(§2) Cell-based HTS Assays: These assays measuring binding constants and enzyme inhibition values for nuclear receptors. The targets include AR, ER, FXR, LXR, PPARα, PPARδ, PPARγ, RXRα, RXRβ and PXR. Each of the nuclear receptor targets was measured in both agonist and antagonist mode, but the antagonist data is still undergoing analysis due to possible interference between cytotoxicity and assay activity, so antagonist mode data were not used in the present analysis. Assays were run at the NIH Chemical Genomics Center (Rockville, MD) as part of the Tox21 collaboration. […] The R^2 was required to be ≥0.5. Values where only the highest concentration exceeded 50% activity were excluded to eliminate weak or false positives. Detailed description of the methods, data and analysis methods for this dataset will be presented in a separate publication.
(In general: Reporter assays use an easily measured gene product as a stand-in for the process of interest.)

Data set [2] addresses T1, AR (androgen receptor). The data set can be described thus: NCGC_AR_Agonist: GAL4 BLAM Reporter gene assay: AR. The following applies: agonist mode; scale not given, looks like -log10 of molar active concentration; 0 = no activity. The format is cell-based. How it is done: as §1, §2
Setting [3] is: mouse chronic study, liver, neoplastic lesion, coded 6 / Inf / 0, code not explained here.
Setting [4] is: scale not given, looks like -log10 of molar active concentration, 0 = no activity.

On to `CC(C)N1C(=O)c2ccccc2NS1(=O)=O` [r37], for which, in the data set on Mouse Liver (setting [3]), the CHR_Mouse_Liver_3_NeoplasticLesion was 6. At AR (androgen receptor) [1] (setting [4]), `COc1ccc(-c2ccccc2)cc1NNC(=O)OC(C)C` [r38] registered an NCGC_AR_Antagonist of 0. The CHR_Mouse_Liver_3_NeoplasticLesion with Mouse Liver (setting [3]) is on record as 6. The molecule also gave an NCGC_AR_Agonist on AR (androgen receptor) [2] of 0. On to `Cc1c(COC(=O)C2C(/C=C(\Cl)C(F)(F)F)C2(C)C)cccc1-c1ccccc1` (stereo not shown) [r39], for which the CHR_Mouse_Liver_3_NeoplasticLesion in the data set on Mouse Liver (setting [3]) is given as 6. `CC(C)(c1ccc(O)cc1)c1ccc(O)cc1` [r40] showed an NCGC_AR_Antagonist on AR (androgen receptor) [1] (setting [4]) of 4.137. Moreover, the NCGC_AR_Agonist on AR (androgen receptor) [2] amounted to 0. For `CCC(C)n1c(=O)[nH]c(C)c(Br)c1=O` (stereo not shown) [r43], the CHR_Mouse_Liver_3_NeoplasticLesion with Mouse Liver (setting [3]) is reported as 6.

Regarding `N#Cc1cc(Br)c(O)c(Br)c1` [r44], the NCGC_AR_Antagonist on AR (androgen receptor) [1] (setting [4]) came to 0. The CHR_Mouse_Liver_3_NeoplasticLesion in the data set on Mouse Liver (setting [3]) is 6. Also, the NCGC_AR_Agonist at AR (androgen receptor) [2] is given as 0. Molecule `CC(C)N1C(=O)N(c2ccccc2)CS/C1=N\C(C)(C)C` [r45] displayed an NCGC_AR_Antagonist on AR (androgen receptor) [1] (setting [4]) of 0. In addition, in the data set with Mouse Liver (setting [3]), the CHR_Mouse_Liver_3_NeoplasticLesion is 6. At AR (androgen receptor) [2], this molecule yielded an NCGC_AR_Agonist of 0. On to `CCCCOCN(C(=O)CCl)c1c(CC)cccc1CC` [r46], for which, on AR (androgen receptor) [1] (setting [4]), the NCGC_AR_Antagonist was 4.347. The same molecule gave an NCGC_AR_Agonist on AR (androgen receptor) [2] of 0. The like results for `CCSC(=O)N(CC(C)C)CC(C)C` [r49] were, in that order, 0 and 0.

Consider `CNC(=O)Oc1cccc2ccccc12` [r52], for which, in the data set with Mouse Liver (setting [3]), the CHR_Mouse_Liver_3_NeoplasticLesion is listed as 6.

At AR (androgen receptor) [1] (setting [4]), `CC1=C(C(=O)Nc2ccccc2)SCCO1` [r53] came in with an NCGC_AR_Antagonist of 0. Besides, the NCGC_AR_Agonist on AR (androgen receptor) [2] is recorded as 0. On AR (androgen receptor) [1] (setting [4]), `Cc1ccccc1CO[C@@H]1C[C@@]2(C(C)C)CC[C@]1(C)O2` [r64] returned an NCGC_AR_Antagonist of 0. Moreover, the CHR_Mouse_Liver_3_NeoplasticLesion in the data set on Mouse Liver (setting [3]) is reported as 6. For the same molecule, the NCGC_AR_Agonist on AR (androgen receptor) [2] is reported as 0.

As to `CCCC1COC(Cn2cncn2)(c2ccc(Cl)cc2Cl)O1` (stereo not shown) [r262], the CHR_Mouse_Liver_3_NeoplasticLesion in the data set with Mouse Liver (mouse, chronic study) is listed as 6. As to `CC(C)=CC1C(C(=O)OCc2coc(Cc3ccccc3)c2)C1(C)C` (stereo not shown) [r280], in the data set with Mouse Liver (chronic study, mouse liver), the CHR_Mouse_Liver_3_NeoplasticLesion was 6. Molecule `CC(C)Oc1cc(-n2nc(C(C)(C)C)oc2=O)c(Cl)cc1Cl` [row 225] had an NCGC_AR_Antagonist on AR (androgen receptor) [1] of 4.167. Further, the CHR_Mouse_Liver_3_NeoplasticLesion in the data set on Mouse Liver (chronic mouse study, liver) is listed as 6.
